According to patent US20160030415A1, “TREATMENT AND PROPHYLAXIS OF KIDNEY DISEASES” (priority 2013, published 2016):
Marks after values point to notes of the source that are not given here.

Key:
[1] = system: STZ induced diabetic nephropathy in rats; experiment: Study 4: HCQ and its combination with Losartan, Telmisartan, Azilsartan and Ramipril, with Glimepiride control; format: in vivo, Wistar rats; conditions: dose mg/kg: HCQ 70, GLM 1
Description: The methods described in Terri et al, Diabetes Volume, 1997, 46:1612-1618, and Takashi et al, Jpn J. Pharmacol, 1997, 75, 59-64, were followed for inducing Diabetes in rats by injecting Streptozotocin. The Efficacy of the drugs was tested in two different models, one involving comparison with diabetic control (i.e. Diabetic Rats not treated with any medication) and the other involving comparison with the anti-diabetic control group (i.e. Diabetic rats administered Glimepiride) in two separate studies.
Wistar rats of either sex weighing 150-200 g were divided randomly into 28 groups consisting of 6 animals each. Diabetes was induced in rats by single administration of streptozotocin (55 mg/kg/i.p) dissolved in 0.1 M-citrate buffer, pH 4.5. Group 1 (normal control) consisted of normal rats that neither received streptozotocin nor any test drug; Group 2 served as Diabetic control; Group 3 was diabetic rats treated with Hydroxychloroquine (35 mg/kg); Group 4 was diabetic rats treated with Hydroxychloroquine (45 mg/kg) and Group 5 was diabetic rats treated with Hydroxychloroquine (70 mg/kg); Group 6 was diabetic rats treated with Losartan (5.5 mg/kg); Group 7 was diabetic rats treated with Losartan (11 mg/kg); Group 8 was diabetic rats treated with combination of Losartan (5.5 mg/kg) and Hydroxychloroquine (45 mg/kg); Group 9 was diabetic rats treated with combination of Losartan (11 mg/kg) and Hydroxychloroquine (35 mg/kg); Group 10 was diabetic rats treated with Ramipril (0.6 mg/kg); Group 11 was diabetic rats treated with Ramipril (0.3 mg/kg); Group 12 was diabetic rats treated with combination of Ramipril (0.6 mg/kg) and Hydroxychloroquine (35 mg/kg); Group 13 was diabetic rats treated with combination of Ramipril (0.3 mg/kg) and Hydroxychloroquine (45 mg/kg); Group 14 was diabetic rats treated with combination of Ramipril (0.6 mg/kg) and Hydroxychloroquine (45 mg/kg); Group 15 was diabetic rats treated with combination of Ramipril (0.3 mg/kg) and Hydroxychloroquine (35 mg/kg); Group 16 was diabetic rats treated with Telmisartan (9.5 mg/kg); Group 17 was diabetic rats treated with Telmisartan (4.5 mg/kg); Group 18 was diabetic rats treated with combination of Telmisartan (9.5 mg/kg) and Hydroxychloroquine (35 mg/kg); Group 19 was diabetic rats treated with combination of Telmisartan (4.5 mg/kg) and Hydroxychloroquine (45 mg/kg); Group 20 was diabetic rats treated with combination of Telmisartan (9.5 mg/kg) and Hydroxychloroquine (45 mg/kg); Group 21 was diabetic rats treated with combination of Telmisartan (4.5 mg/kg) and Hydroxychloroquine (35 mg/kg); Group 22 was diabetic rats treated with Azilsartan (4.5 mg/kg); Group 23 was diabetic rats treated with Azilsartan (2.5 mg/kg); Group 24 was diabetic rats treated with combination of Azilsartan (4.5 mg/kg) and Hydroxychloroquine (35 mg/kg); Group 25 was diabetic rats treated with combination of Azilsartan (2.5 mg/kg) and Hydroxychloroquine (45 mg/kg); Group 26 was diabetic rats treated with combination of Azilsartan (4.5 mg/kg) and Hydroxychloroquine (45 mg/kg); Group 27 was diabetic rats treated with combination of Azilsartan (2.5 mg/kg) and Hydroxychloroquine (35 mg/kg); Group 28 served as Anti-Diabetic control wherein diabetic rats were treated with antidiabetic drug Glimepiride (GLM) (1 mg/kg).
The study drugs were dissolved/suspended in vehicle and administered orally once a day for eight weeks. The diabetes mellitus induced nephropathy was assessed by estimating the level of serum urea, serum creatinine and total serum protein content after completion of eighth week of study. TBARS, GSH and Total Protein were measured as markers of renal oxidative stress in Kidney Homogenate after completion of eighth week of study. Blood glucose levels were also assessed at weekly interval.

[2] = system: Streptozotocin (STZ) induced diabetic rats; experiment: Study 2: HCQ and its combination with Losartan in comparison with anti-diabetic control (Glimepiride) in renal damage; format: in vivo, Wistar rats
Description: The Efficacy of the drugs was tested in two different models, one involving comparison with diabetic control (i.e. Diabetic Rats not treated with any medication) and the other involving comparison with the anti-diabetic control group (i.e. Diabetic rats administered Glimepiride) in two separate studies. 30 Wistar rats of either sex weighing 150-250 g were divided randomly into 5 groups consisting of 6 animals each. Diabetes was induced in rats by single administration of Streptozotocin (STZ)(55 mg/kg/i.p) dissolved in 0.1 M-citrate buffer, pH 4.5. Group 1 (normal control) consisted of normal rats that neither received streptozotocin nor any test drug; Group 2 served as Anti-Diabetic control wherein diabetic rats were treated with antidiabetic drug Glimepiride. Group 3 was diabetic rats treated with Losartan (11 mg/kg); Group 4 was diabetic rats treated with Hydroxychloroquine (45 mg/kg) and Group 5 was diabetic rats treated with combination of Hydroxychloroquine (45 mg/kg) and Losartan (11 mg/kg). The study drugs were dissolved/suspended in distilled water and administered orally once a day for eight weeks. The diabetes mellitus induced nephropathy was assessed by estimating the level of serum creatinine and total serum protein content after completion of eighth week of study. TBARS and Total Protein were measured as markers of renal oxidative stress in Kidney Homogenate after completion of eighth week of study.

[3] = kidney homogenate, after 8th week
[4] = Glimepiride 8 mg/kg alone (antidiabetic control) or with Losartan 11 mg/kg and/or Hydroxychloroquine 45 mg/kg, oral once daily
[5] = after 8th week, Glimepiride 8 mg/kg alone or with Losartan 11 mg/kg and/or Hydroxychloroquine 45 mg/kg
[6] = kidney homogenate, after 8th week, Glimepiride 8 mg/kg alone or with Losartan 11 mg/kg and/or Hydroxychloroquine 45 mg/kg

Question: Which results are given for `CCC1=C(C)CN(C(=O)NCCc2ccc(S(=O)(=O)NC(=O)N[C@H]3CC[C@H](C)CC3)cc2)C1=O` [Glimepiride]?
Answer: HDL ([1]; after 8th week): 29 ± 1.41 mg/dL; TC ([1]; after 8th week): 142 ± 2.68 mg/dL; TG ([1]; after 8th week): 96.5 ± 2.35 mg/dL; Glucose Day1 ([1]; blood, Day1): 276.83 ± 19.14 mg/dL; Glucose Day14 ([1]; blood, Day14): 216.67 ± 18.44 mg/dL; Glucose Day28 ([1]; blood, Day28): 179.17 ± 7.36 mg/dL; Glucose Day42 ([1]; blood, Day42): 159 ± 6.07 mg/dL; Glucose Day56 ([1]; blood, Day56): 149.17 ± 7.83 mg/dL; GSH [1, 3]: 2.36 ± 0.64 nM/mg; TBARS [1, 3]: 0.5 ± 0.13 nM/mg; Total protein kidney [1, 3]: 856.83 ± 18.18 µg/mL; Creatinine ([1]; serum, after 8th week): 3.21 ± 0.23 mg/dL; Total protein ([1]; serum, after 8th week): 4.8 ± 0.18 g/dL; Urea ([1]; serum, after 8th week): 43 ± 2.1*^ mg/dl; Serum Creatinine after 8th week [2, 4]: 3.17 mg/dL; Serum Creatinine after 8th week (% Control) [2, 4]: (100) % Control; Total Serum Protein Levels after 8th week [2, 4]: 4.73 g/dL; Total Serum Protein Levels after 8th week (% Control) [2, 4]: (100) % Control; Total Protein in Kidney Homogenate (% Control) [2, 5]: (100) % Control; Total Protein in Kidney Homogenate Mean [2, 5]: 926.67 µg/mL; TBARS (% Control) [2, 6]: (100) % Control; TBARS Mean [2, 6]: 0.82 nM/mg
